Source: publication PMC6774960, “Design, synthesis and biological evaluation of a series of new resveratrol analogues as potential anti-cancer agents” (Royal Society Open Science, 2019)

What was measured:
Format in all cases: cell-based, human
[1] = test system: HepG2 cells; assay: MTT anti-proliferation assay, HepG2; settings: average of three determinations
Procedure: The 22 synthesized resveratrol compounds were evaluated for anti-proliferative activities against three human cancer cell lines, including HepG2, A549 and HeLa cells, using 3-[4,5-dimethylthiazol-2-yl]-2,5 diphenyl tetrazolium bromide (MTT) assays. Paclitaxel, a well-known tubulin inhibitor, was used as a positive control. […] Therefore, the inhibitory activity of the compounds depended not only on the 2-position substitution of acrylic acid, but also on the 3-position substitution of acrylic acid.
The anti-proliferative and cytotoxicity activity was determined using MTT assay. Human cervical carcinoma HeLa cells, human hepatocellular carcinoma HepG2 cells, human lung carcinoma A549 cells were representative in the anti-proliferation assay, which were obtained from the Shanghai Institute of Cell Biology (Shanghai, China). Normal African green monkey kidney Vero cells were a gift from Dr Xiumiao He at Guangxi University for Nationalities. Normal human hepatocytes LO2 cells were a gift from Dr Xing Lin at Guangxi Medical University. The HepG2, Hela, LO2 and Vero cells were cultured in Dulbecco's modified Eagle's medium (DMEM, Gibco) and the A549 cells were cultured in RPMI1640 (Gibco), both media were supplemented with 10% fetal calf serum and antibiotics (100 IU ml^−1 penicillin, 100 IU ml^−1 streptomycin; Amresco).
Cells were seeded in 96-well microtiter plates at a density of 1 × 10^4 cells well^−1 and incubated with different concentrations of compound (6.25, 12.50, 25.00, 50.00 to 100.00 µM), cisplatin and paclitaxel in RPMI-1640 or DMEM at 37°C with 5% CO2. After 24 h, cell morphology was observed using a light microscope, and then 20 µl of MTT solution (5 mg ml^−1) was added to the well and incubated for 4 h, then cell survival was determined by measuring the optical density (OD) absorbance at a wavelength of 570 nm using an ELISA microplate reader. The inhibition rate (IR) following each compound treatment was determined by the following equation: IR (%) = (1 − ODexp/ODcon) × 100%, where ODexp and ODcon are the OD of the treated and untreated cells, respectively. Cisplatin and paclitaxel were used as positive control drugs.

[2] = test system: β-tubulin in HepG2 cells; assay: Immunofluorescence microscopy assay of β-tubulin; settings: 24 h
Procedure: Resveratrol was previously reported to hamper microtubule function. To examine whether the anti-proliferative activity of compound r, a resveratrol derivative, was related to an interaction with tubulin, we examined β-tubulin in HepG2 cells treated with compound r and by immunofluorescence assay. Compound r ranging from 5 to 45 µM inhibited β-tubulin for 24 h (figure 3). […] In addition, after incubation with compound r (5, 15 and 45 µM), many cells became multinucleated. These phenomena were consistent with those observed with other microtubule-targeted drugs.
Figure 3. Compound r promoted microtubule depolymerization in HepG2 cells. The HepG2 cells were treated with 0, 5, 15 or 45 µM compound r for 24 h, microtubule networks and nuclei were observed by immunofluorescence microscopy assay.
HepG2 cells were cultured in DMEM supplemented with 10% fetal bovine serum on coverslips in 6-well plates and allowed to adhere for at least 12 h. Cells were then incubated in the presence or absence of compound r (0, 5, 15, 45 µM) for 24 h. Control cells were incubated with vehicle alone. […] Cell nuclei were stained with 4,6-diamidino-2-phenylindole (DAPI) and then images were obtained with a fluorescence microscope equipped with a motorized image capture system. […]

[3] = test system: HepG2 cells; assay: Apoptosis analysis, Annexin V-FITC/PI flow cytometry; settings: 24 h
Procedure: To investigate the effect of compound r on the apoptosis of HepG2 cells, cells were treated with different concentrations of compound r (0, 5, 15 and 45 µM) for 24 h and apoptosis was detected by flow cytometry analysis.
Figure 4. Effect of compound r on the apoptosis in HepG2 cells. Analysis of compound r induced apoptosis in HepG2 cells. The HepG2 cells were treated with 0, 5, 15 or 45 µM by flow cytometry. Cells were stained using propidium iodide (IP) and fluorescein isothiocyanate (FITC). The data manifested the percentage of early apoptotic cells (lower right) or late apoptosis and cell death (upper right) in each quadrant. TEXT PRINTED IN THE PICTURE: control: 7.22% (20 μM); 51.10% (20 μM); 18.67% (20 μM); 23.01% (20 μM) | compound r: 10.95% (low (5 μM)); 22.17% (low (5 μM)); 45.61% (low (5 μM)); 21.27% (low (5 μM)); 10.26% (middle (15 μM)); 18.51% (middle (15 μM)); 33.78% (middle (15 μM)); 37.45% (middle (15 μM)); 7.78% (high (45 μM)); 32.94% (high (45 μM)); 28.71% (high (45 μM)); 30.57% (high (45 μM)) DOUBTS OF THE COPYIST ABOUT THIS PICTURE: The quadrant percentages have no printed measure. For each plot they are listed in the order upper left, upper right, lower left, lower right (axes PI vs annexin V FITC). / The blank (0 μM) plot prints 0.00%, 0.01%, 99.91% (faint, partly hidden by dots, uncertain) and 0.08%. It is left out because no substance is present. / control (20 μM): 18.67% and 23.01% are partly overlaid by dots, so the digits are not fully certain. / compound r, low (5 μM): 21.27% is partly overlaid by dots; the first digit could be 2 or 3. 45.61% is in small print. / compound r, middle (15 μM): 33.78% and 37.45% are in small print, so 3/8 are not fully certain. / compound r, high (45 μM): 30.57% is partly overlaid by dots, and 28.71% is in small print. / The label 'compound r' is printed only on the axis of the bar chart. The scatter plots themselves are labelled only low, middle and high.
HepG2 cells seeded in 6-well plates were treated with compound r (0, 5, 15, 45 µM) or cisplatin (20 µM) for 24 h. […] The stained cells were detected via a flow cytometer.

- IC50 ([1]; 24 h): 7 ± 1 µM
- IC50 ([1]; Homo sapiens, HepG2, 24 h): 7.49 µM
Structure (SMILES): COc1ccc(C(=Cc2cc(C(F)(F)F)ccc2Cl)C(=O)O)cc1 [compound r, 3-(2-chloro-5-(trifluoromethyl)phenyl)-2-(4-methoxyphenyl) acrylic acid]
- microtubule network / cytoskeleton appearance ([2]; HepG2, 45 µM): microtubules appeared depolymerized
- microtubule network / cytoskeleton appearance ([2]; HepG2, 5 and 15 µM): highly abnormal cytoskeleton
- apoptotic cell population ([3]; HepG2, 5 µM): 43.44%
- apoptotic cell population ([3]; HepG2, 15 µM): 55.96%
- apoptotic cell population ([3]; HepG2, 45 µM): 63.51%
